Measured values taken from the RepoRT retention time repository (doi:10.1016/j.jhazmat.2019.121712).

experiment: Thermo Scientific Acclaim RSLC 120 C18, 100 × 2.1 mm, 2.2 µm, 30 °C; A: 90% water + 10% methanol + 0.01% formic acid + 5 mM ammonium formate; B: methanol + 0.01% formic acid + 5 mM ammonium formate; gradient (min/%B) 0.1/1 3/39 14/99.9 16/99.9; details: stereoisomer not certain

LC retention time [min] | SMILES
8.14 | COc1ccc2c(c1)N(CC(C)CN(C)C)c1ccccc1S2 (stereo unspecified)
8.49 | CNCC(C)CN1c2ccccc2CCc2ccccc21 (stereo unspecified)
7.89 | Cc1ccc(C(=O)c2ccc(CC(=O)O)n2C)cc1
6.84 | CN1C(C(=O)Nc2ccccn2)=C(O)c2ccccc2S1(=O)=O
9.03 | CCOC(=O)C(CCc1ccccc1)NC(C)C(=O)N1Cc2ccccc2CC1C(=O)O (stereo unspecified)
7.37 | Cc1onc(-c2ccccc2)c1-c1ccc(S(N)(=O)=O)cc1
5.99 | CN1CCC(=C2c3ccccc3CCc3cccnc32)CC1
7.24 | CC(Cc1ccccc1)N1C=C(NC(=O)N=C2C=CC(=O)C=C2)ON1 (stereo unspecified)
10.7 | CNC(=O)C(=NOC)c1ccccc1COc1cc(C)ccc1C
6.16 | CN(C)CCOC(=O)C(c1ccccc1)C1(O)CCCC1 (stereo unspecified)
10.3 | COC(=O)Nc1nc2ccc(Sc3ccccc3)cc2[nH]1
8.43 | COc1ccc(Oc2ccc(NC(=O)N(C)C)cc2)cc1
12.2 | CCOc1nc2cccc(C(=O)OC(C)OC(=O)OC3CCCCC3)c2n1Cc1ccc(-c2ccccc2-c2nn[nH]n2)cc1 (stereo unspecified)
11.6 | Cc1cccc(Nc2ccccc2C(=O)O)c1C
8.54 | CC(NCCC(c1ccccc1)c1ccccc1)c1ccccc1 (stereo unspecified)
9.36 | CCCOC(C(=O)OC1CCN(C)CC1)(c1ccccc1)c1ccccc1

LC retention time [min] | SMILES
6.83 | CCOC(=O)C(CCc1ccccc1)NC(C)C(=O)N1CCCC1C(=O)O (stereo unspecified)
13.6 | Oc1ccc2ccccc2c1N=Nc1ccccc1
8.56 | CCOC(=O)C(CCc1ccccc1)NC(C)C(=O)N1C(C(=O)O)CC2CCCC21 (stereo unspecified)
3.79 | CC(NCCc1ccc(O)cc1)C(O)c1ccc(O)cc1 (stereo unspecified)
5.13 | CC(C)N(C(=O)C(=O)O)c1ccccc1
8.68 | COc1ccc2cccc(CCNC(C)=O)c2c1
6.46 | NC(=O)N1c2ccccc2CC(=O)c2ccccc21
6.99 | CC(Cc1ccc(C(C)C(=O)O)cc1)C(=O)O (stereo unspecified)
8.83 | COC(=O)C(Cc1ccccc1)NC(=O)C(CC(=O)O)NCCC(C)(C)C (stereo unspecified)
3.96 | Cc1c(NC=O)c(=O)n(-c2ccccc2)n1C
8.34 | CN(C)C(CCOc1cccc2ccccc12)c1ccccc1 (stereo unspecified)
7.97 | CN1C2CCC1CC(OC(c1ccccc1)c1ccccc1)C2 (stereo unspecified)
12.2 | Cc1cccc(N(C)C(=S)Oc2ccc3ccccc3c2)c1
9.25 | N#CSCSc1nc2ccccc2s1
13.7 | CN(C)c1ccc(C(c2ccccc2)c2ccc(N(C)C)cc2)cc1
3.34 | CC(=O)Nc1ccc(OCC(O)CNC(C)C)cc1 (stereo unspecified)

More lines, now with the values behind:

SMILES | LC retention time [min]
CCCNC1CCc2nc(N)sc2C1 (stereo unspecified) | 2.64
CCN1CCN(C(=O)NC(C(=O)NC2C(=O)N3C(C(=O)O)=C(CSc4nnnn4C)CSC23)c2ccc(O)cc2)C(=O)C1=O (stereo unspecified) | 4.36
COC1CC(OC2C(C)OC(OC3C(C)=CCC4CC(CC5(CCC(C)C(C(C)C)O5)O4)OC(=O)C4C=C(C)C(O)C5OCC(=CC=CC3C)C45O)CC2OC)OC(C)C1O (stereo unspecified) | 14.2
COC(=O)C1C2CC3c4[nH]c5cc(OC)ccc5c4CCN3CC2CC(OC(=O)c2cc(OC)c(OC)c(OC)c2)C1OC (stereo unspecified) | 8.47
CCCc1nn(C)c2c(=O)[nH]c(-c3cc(S(=O)(=O)N4CCN(CCO)CC4)ccc3OCC)nc12 | 7.83
CCOP(=S)(OCC)SCSC(C)(C)C | 12.2
CCC1OC(=O)C(C)C(OC2CC(C)(OC)C(O)C(C)O2)C(C)C(OC2OC(C)CC(N(C)C)C2O)C(C)(O)CC(C)C(=NOCOCCOC)C(C)C(O)C1(C)O (stereo unspecified) | 9.23
COc1ccc(C(O)(c2cncnc2)C2CC2)cc1 (stereo unspecified) | 7.15
COC(=O)C1=COC(C)C2CN3CCc4c([nH]c5ccccc45)C3CC12 (stereo unspecified) | 6.66
COC(C)C(O)(C(=O)OCC1=CC[N+]2([O-])CCC(O)C12)C(C)C (stereo unspecified) | 3.49
CN(C)CCOCC(=O)NC12CC3CC(CC(C3)C1)C2 | 6.64
CCC1C2CC3C4N(C)c5ccccc5C45CC(C2C5O)N3C1O (stereo unspecified) | 5.19
Cn1c(=O)c2c(ncn2CCCNCC(O)c2cc(O)cc(O)c2)n(C)c1=O (stereo unspecified) | 3.56
CCOP(=S)(OCC)OP(=S)(OCC)OCC | 10.8
CCCCCn1cc(C(=O)Cc2ccccc2C)c2ccccc21 | 12.2
COc1cccc(C2(O)CCCCC2CN(C)C)c1 (stereo unspecified) | 4.88
CCN(CC)CCCOC(=O)C1(c2ccccc2)CC2CCC1C2 (stereo unspecified) | 8.54
Cc1cnc(C(=O)NCCc2ccc(S(=O)(=O)NC(=O)NC3CCCCC3)cc2)cn1 | 8.11
Cn1cnc2c1c(=O)[nH]c(=O)n2C | 3.28
Cc1cccc(C)c1NC(=O)C1CCCCN1C (stereo unspecified) | 4.66
CC(C)(C)NCC(O)COc1cccc2c1CC(O)C(O)C2 (stereo unspecified) | 4.29
CCCCCCCCOC(=O)c1ccccc1C(=O)OCCCCCCCC | 15.3
COC(=O)Nc1nc2ccccc2[nH]1 | 5.46
CCC(=O)OC(OP(=O)(CCCCc1ccccc1)CC(=O)N1CC(C2CCCCC2)CC1C(=O)O)C(C)C (stereo unspecified) | 12.4
CCCOP(=O)(OCCC)Oc1ccc(SC)cc1 | 10.8

SMILES | LC retention time [min]
Cc1ncc([N+](=O)[O-])n1CCO | 3.58
CCS(=O)(=O)CCSP(=O)(OC)OC | 4.15
CCSC(=O)N(CC(C)C)CC(C)C | 12
CCC1OC(=O)C(C)C(OC2CC(C)(OC)C(O)C(C)O2)C(C)C(OC2OC(C)CC(NC)C2O)C(C)(OC)CC(C)C(=O)C(C)C(O)C1(C)O (stereo unspecified) | 9.16
CC(N)Cc1c[nH]c2ccccc12 (stereo unspecified) | 4.44
COc1ccc2c(c1)C13CCCCC1C(C2)N(C)CC3 (stereo unspecified) | 6.51
O=C(O)CCCCn1cc(C(=O)c2cccc3ccccc23)c2ccccc21 | 9.71
Nc1ccc(S(=O)(=O)Nc2nccs2)cc1 | 3.63
CC(=O)Oc1cccc2[nH]cc(CCN(C(C)C)C(C)C)c12 | 4.88
O=C(O)CCCCC1SCC2NC(=O)NC21 (stereo unspecified) | 4.44
CC(O)CCCn1cc(C(=O)c2cccc3ccccc23)c2ccccc21 (stereo unspecified) | 10.1
N#Cc1ccc2c(c1)N(CCCN1CCC(O)CC1)c1ccccc1S2 | 7.45
COc1ccc2c3c1OC1C(=O)CCC4(O)C(C2)N(C)CCC314 (stereo unspecified) | 3.61
CCOP(=S)(OCC)Oc1ccc(=O)n(-c2ccccc2)n1 | 9.79
CN(CCO)c1nc2c(c(=O)n(C)c(=O)n2C)n1C | 4.94
O=C(c1cccc2ccccc12)c1cn(CCN2CCOCC2)c2ccccc12 | 9.88
CNCC1CCCCC1(O)c1cccc(O)c1 (stereo unspecified) | 4.28
COC(=O)C(NC(=O)c1nn(CC2CCCCC2)c2ccccc12)C(C)(C)C (stereo unspecified) | 12.9
COC(C)(C)CCCC(C)CC=CC(C)=CC(=O)OC(C)C (stereo unspecified) | 13.6
CCOC(=O)C=C1SC(N2CCCCC2)C(=O)N1CC (stereo unspecified) | 9.85
CC12CCC3c4ccc(O)c(O)c4CCC3C1CCC2=O (stereo unspecified) | 8.69
Cc1c(C(=O)c2cccc3ccccc23)c2cccc3c2n1C(CN1CCOCC1)CO3 (stereo unspecified) | 10.9
COc1cc(C(=O)OCCCN(C)CCN(C)CCCOC(=O)c2cc(OC)c(OC)c(OC)c2)cc(OC)c1OC | 7.54
COP(=S)(OC)Oc1ccc(S(=O)(=O)N(C)C)cc1 | 7.99
CCC(CC)Nc1c([N+](=O)[O-])cc(C)c(C)c1[N+](=O)[O-] | 12.8

SMILES | LC retention time [min]
CC(C)(C)c1n[nH]c(=O)n(N)c1=O | 5.89
CC12Cc3cn[nH]c3CC1CCC1C2CCC2(C)C1CCC2(C)O (stereo unspecified) | 11.3
CC(N)Cc1ccc2occc2c1 (stereo unspecified) | 4.79
CN1CCC23c4c5ccc(OC6OC(C(=O)O)C(O)C(O)C6O)c4OC2C(O)C=CC3C1C5 (stereo unspecified) | 1.63
CCCc1nn(C)c2c(=S)nc(-c3cc(S(=O)(=O)N4CCN(CC)CC4)ccc3OCC)[nH]c12 | 10.6
CC12CCC3=C4CCC(=O)C=C4CCC3C1CCC2(O)CC#N (stereo unspecified) | 8.09
CCC=CCC1=C(C)C(OC(=O)C2C(C=C(C)C(=O)OC)C2(C)C)CC1=O (stereo unspecified) | 12.2
CCOP(=S)(OCC)Oc1ccc([N+](=O)[O-])cc1 | 10.7
CC12C=CC(=O)C=C1CCC1C2C(O)CC2(C)C1CCC2(O)C(=O)CO (stereo unspecified) | 7.84
CCCCn1c(O)c(C(=O)c2cccc3ccccc23)c2ccccc21 | 13.5
CCN(CC)C(C)C(=O)c1ccccc1 (stereo unspecified) | 4.11
COP(=S)(OC)Oc1ccc([N+](=O)[O-])cc1 | 9.24
CC(C)CC(C)Nc1ccc(Nc2ccccc2)cc1 (stereo unspecified) | 9.92
Cc1cccc2sc3nncn3c12 | 5.93
COc1cc2c(cc1OC)C(=O)C(CC1CCN(Cc3ccccc3)CC1)C2 (stereo unspecified) | 5.81
CCNP(=S)(OC)OC(C)=CC(=O)OC(C)C (stereo unspecified) | 9.79
CCCOC(=O)NCCCN(C)C | 3.5
CC(C(=O)c1ccccc1)N1CCCC1 (stereo unspecified) | 4.01
O=C(O)C(c1ccccc1)C1CCCCN1 (stereo unspecified) | 4.61
c1ccc2c(c1)Sc1ccccc1N2CC1CN2CCC1CC2 (stereo unspecified) | 8.29
CC1C(=O)OC2CCN3CC=C(COC(=O)C(C)(O)C1(C)O)C23 (stereo unspecified) | 2.92
CCOC(=O)C1=CC(OC(CC)CC)C(NC(C)=O)C(N)C1 (stereo unspecified) | 6.76
COCC(=O)N(c1c(C)cccc1C)N1CCOC1=O | 6.29
CC(O)(C(N)=O)c1ccccc1 (stereo unspecified) | 12.9
